Experimental data from patent publication US20260305610A1, “TRIAZOLE COMPOUND, AND PREPARATION METHOD THEREFOR, HERBICIDAL COMPOSITION AND USE THEREOF” (QINGDAO KINGAGROOT CHEMICAL COMPOUND CO., LTD., priority 2023, published 2026).

Experiments:
[1] = system: monocotyledonous and dicotyledonous weeds; assay: Pre-emergence test experiment (weeds); format: in vivo; set-up: key: 9: completely dead; 8: growth control rate is greater than or equal to 90% and less than 100%; 7: growth control rate is greater than or equal to 80% and less than 90%; 6: growth control rate is greater than or equal to 70% and less than 80%; growth control rate is greater than or equal to 50% and less than 70%; 4: growth control rate is greater than or equal to 30% and less than 50%; growth control rate is greater than or equal to 20% and less than 30%; growth control rate is greater than or equal to 10% and less than 20%; growth control rate is less than 10%; 0: no effect; conditions: 30 g a.i./ha
major crops = assay: Pre-emergence test experiment (crops); format: in vivo; set-up: key: 9: completely dead; 8: growth control rate is greater than or equal to 90% and less than 100%; 7: growth control rate is greater than or equal to 80% and less than 90%; 6: growth control rate is greater than or equal to 70% and less than 80%; growth control rate is greater than or equal to 50% and less than 70%; 4: growth control rate is greater than or equal to 30% and less than 50%; growth control rate is greater than or equal to 20% and less than 30%; growth control rate is greater than or equal to 10% and less than 20%; growth control rate is less than 10%; 0: no effect; conditions: 30 g a.i./ha

Row | SMILES | Pre-emergence activity level (growth control rate) on Amaranthus retroflexus [1] | Pre-emergence activity level (growth control rate) on Descurainia sophia [1] | Pre-emergence activity level (growth control rate) on Digitaria sanguinalis [1] | Pre-emergence activity level (growth control rate) on Setaria viridis [1] | Pre-emergence activity level (growth control rate) on Solanum nigrum [1] | Pre-emergence activity level (growth control rate) on Veronica [1] | Pre-emergence plant damage level (growth control rate) on Corn (major crops) | Pre-emergence plant damage level (growth control rate) on Cotton (major crops) | Pre-emergence plant damage level (growth control rate) on Soybean (major crops)
1 | N#Cc1cc(Oc2cccc(C(F)(F)F)c2)nc(-n2cnc(C(F)(F)F)n2)c1 [Compound 2] | 9 | 9 | 8 (growth control rate is greater than or equal to 90% and less than 100%) | 8 (growth control rate is greater than or equal to 90% and less than 100%) | 9 | 9 | 0 | 0 | 0
2 | COc1cc(Oc2cccc(C(F)(F)F)c2)nc(-n2cnc(C(F)(F)F)n2)c1 [Compound 3] | 9 | 9 | 8 (growth control rate is greater than or equal to 90% and less than 100%) | 9 | 9 | 9 | 0 | 0 | 0
3 | Cc1cc(Oc2cccc(C(F)(F)F)c2)nc(-n2cnc(C(F)(F)F)n2)c1 [Compound 5] | 9 | 9 | 9 | 9 | 9 | 9 | 0 | 0 | 0
4 | Cc1cc(Oc2cncc(C(F)(F)F)c2)nc(-n2cnc(C(F)(F)F)n2)c1 [Compound 6] | 9 | 9 | 9 | 9 | 9 | 9 | 0 | 0 | 0
5 | FC(F)(F)c1cccc(Oc2nc(-n3cnc(C(F)(F)F)n3)ccc2Cl)c1 [Compound 7] | 9 | 9 | 8 (growth control rate is greater than or equal to 90% and less than 100%) | 9 | – | 9 | 0 | 0 | 0
6 | Cc1ccc(-n2cnc(C(F)F)n2)nc1Oc1cccc(F)c1 [Compound 81] | 9 | 9 | – | – | – | 9 | – | – | –
7 | CSc1cc(Oc2cccc(C(F)(F)F)c2)nc(-n2cnc(C(F)(F)F)n2)c1 [Compound 86] | – | – | – | – | – | 9 | – | – | –
8 | CSc1cc(Oc2cccc(OC(F)(F)F)c2)nc(-n2cnc(C(F)(F)F)n2)c1 [Compound 87] | – | – | – | – | – | 8 (growth control rate is greater than or equal to 90% and less than 100%) | – | – | –
9 | Cc1ccc(-n2cnc(C(F)(F)F)n2)nc1Oc1cccc(C#N)c1 [Compound 88] | 9 | – | – | – | 9 | – | – | – | –
10 | CCc1ccc(-n2cnc(C(F)(F)F)n2)nc1Oc1cccc(C#N)c1 [Compound 89] | 9 | – | 9 | 9 | – | – | – | – | –
11 | CCc1ccc(-n2cnc(C(F)(F)F)n2)nc1Oc1cncc(C#N)c1 [Compound 94] | – | – | – | 8 (growth control rate is greater than or equal to 90% and less than 100%) | – | – | – | – | –
12 | CCc1ccc(-n2cnc(C(F)(F)F)n2)nc1Oc1ccc(F)c(C#N)c1 [Compound 96] | 8 (growth control rate is greater than or equal to 90% and less than 100%) | 9 | – | – | – | – | – | – | –
13 | Cc1ccc(-n2cnc(C3CC3)n2)nc1Oc1cccc(C(F)(F)F)c1 [Compound 100] | – | – | – | 9 | 8 (growth control rate is greater than or equal to 90% and less than 100%) | – | – | – | –
14 | CSc1cc(Oc2cncc(C(F)(F)F)c2)nc(-n2cnc(C(F)(F)F)n2)c1 [Compound 111] | – | 9 | – | 8 (growth control rate is greater than or equal to 90% and less than 100%) | – | – | – | – | –
15 | Cc1cc(Oc2ccc(F)c(C(F)(F)F)c2)nc(-n2cnc(C(F)(F)F)n2)c1 [Compound 120] | – | 9 | – | – | – | – | – | – | –
16 | Cc1cc(Oc2cccc(Cl)c2)nc(-n2cnc(C(F)(F)F)n2)c1 [Compound 121] | – | 9 | – | – | – | – | – | – | –
17 | Cc1cc(Oc2cccc(OC(F)(F)F)c2)nc(-n2cnc(C(F)(F)F)n2)c1 [Compound 122] | 8 (growth control rate is greater than or equal to 90% and less than 100%) | 9 | 8 (growth control rate is greater than or equal to 90% and less than 100%) | 9 | – | 8 (growth control rate is greater than or equal to 90% and less than 100%) | – | – | –
18 | Cc1cc(Oc2ccc(F)c(OC(F)(F)F)c2)nc(-n2cnc(C(F)(F)F)n2)c1 [Compound 123] | – | 9 | – | – | – | – | – | – | –
19 | Cc1ccc(-n2cnc(C(F)(F)C(F)(F)F)n2)nc1Oc1cccc(C(F)F)c1 [Compound 125] | – | 9 | – | – | 9 | – | – | – | –
20 | Cc1ccc(-n2cnc(C(F)(F)C(F)(F)F)n2)nc1Oc1ccc(F)c(C(F)(F)F)c1 [Compound 126] | – | 9 | – | – | 9 | – | – | – | –
21 | Cc1ccc(-n2cnc(C(F)(F)C(F)(F)F)n2)nc1Oc1cccc(OC(F)F)c1 [Compound 127] | – | 9 | – | 8 (growth control rate is greater than or equal to 90% and less than 100%) | 9 | – | – | – | –
22 | CCc1ccc(-n2cnc(C(F)F)n2)nc1Oc1cccc(F)c1 [Compound 128] | – | – | – | – | 9 | – | – | – | –
23 | CCc1ccc(-n2cnc(C(F)(F)F)n2)nc1Oc1cccc(F)c1 [Compound 129] | – | – | 8 (growth control rate is greater than or equal to 90% and less than 100%) | 9 | – | – | – | – | –
24 | CCc1ccc(-n2cnc(C(F)(F)F)n2)nc1Oc1cccc(Cl)c1 [Compound 130] | – | 9 | – | – | 9 | – | – | – | –
25 | CCc1ccc(-n2cnc(C(F)F)n2)nc1Oc1cccc(Cl)c1 [Compound 131] | – | – | – | – | 9 | – | – | – | –
26 | CCc1ccc(-n2cnc(C(F)(F)F)n2)nc1Oc1cccc(C)c1 [Compound 134] | 8 (growth control rate is greater than or equal to 90% and less than 100%) | 9 | 8 (growth control rate is greater than or equal to 90% and less than 100%) | – | – | – | – | – | –
27 | COCc1ccc(-n2cnc(C(F)(F)F)n2)nc1Oc1cccc(F)c1 [Compound 138] | – | 9 | – | – | 9 | – | – | – | –
